# Measurements from ChEMBL document CHEMBL4507276 (2021).
# Experiments:
# [1] = target: Tyrosine-protein kinase Yes (Homo sapiens) (UniProt P07947); experiment: YES1 Invitrogen selectivity data (BI); details: Compound concentration 3.0 uM
# [2] = target: Cannabinoid receptor 1 (Homo sapiens) (UniProt P21554); experiment: CB1 Eurofins-Panlabs selectivity data (BI); details: Compound concentration 10.0 uM
# [3] = target: Small conductance calcium-activated potassium channel protein 1 (Rattus norvegicus) (UniProt P70606); experiment: K+/CA+/R Cerep selectivity data (BI); details: Compound concentration 20.0 uM
# Small conductance calcium-activated potassium channel protein 1 (Rattus norvegicus), sequence (P70606 whole entry): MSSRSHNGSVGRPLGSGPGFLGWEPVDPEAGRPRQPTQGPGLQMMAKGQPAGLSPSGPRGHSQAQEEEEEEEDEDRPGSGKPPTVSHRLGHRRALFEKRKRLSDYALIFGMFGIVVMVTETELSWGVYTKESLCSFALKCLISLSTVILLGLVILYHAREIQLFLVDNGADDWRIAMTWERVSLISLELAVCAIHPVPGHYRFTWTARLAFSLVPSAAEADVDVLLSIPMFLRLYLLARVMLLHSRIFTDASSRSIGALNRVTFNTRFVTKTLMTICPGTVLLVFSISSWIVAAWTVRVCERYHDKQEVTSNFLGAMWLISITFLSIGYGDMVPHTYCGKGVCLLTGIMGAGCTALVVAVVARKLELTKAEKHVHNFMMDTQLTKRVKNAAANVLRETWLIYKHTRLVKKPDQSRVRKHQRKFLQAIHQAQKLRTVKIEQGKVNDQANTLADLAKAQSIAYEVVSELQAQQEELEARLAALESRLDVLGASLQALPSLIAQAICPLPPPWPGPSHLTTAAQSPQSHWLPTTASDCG
# [4] = target: Interleukin-1 receptor-associated kinase 1 (Homo sapiens) (UniProt P51617); experiment: IRAK1 Invitrogen selectivity data (BI); details: Compound concentration 3.0 uM
# Interleukin-1 receptor-associated kinase 1 (Homo sapiens), sequence (P51617 whole entry, looked up): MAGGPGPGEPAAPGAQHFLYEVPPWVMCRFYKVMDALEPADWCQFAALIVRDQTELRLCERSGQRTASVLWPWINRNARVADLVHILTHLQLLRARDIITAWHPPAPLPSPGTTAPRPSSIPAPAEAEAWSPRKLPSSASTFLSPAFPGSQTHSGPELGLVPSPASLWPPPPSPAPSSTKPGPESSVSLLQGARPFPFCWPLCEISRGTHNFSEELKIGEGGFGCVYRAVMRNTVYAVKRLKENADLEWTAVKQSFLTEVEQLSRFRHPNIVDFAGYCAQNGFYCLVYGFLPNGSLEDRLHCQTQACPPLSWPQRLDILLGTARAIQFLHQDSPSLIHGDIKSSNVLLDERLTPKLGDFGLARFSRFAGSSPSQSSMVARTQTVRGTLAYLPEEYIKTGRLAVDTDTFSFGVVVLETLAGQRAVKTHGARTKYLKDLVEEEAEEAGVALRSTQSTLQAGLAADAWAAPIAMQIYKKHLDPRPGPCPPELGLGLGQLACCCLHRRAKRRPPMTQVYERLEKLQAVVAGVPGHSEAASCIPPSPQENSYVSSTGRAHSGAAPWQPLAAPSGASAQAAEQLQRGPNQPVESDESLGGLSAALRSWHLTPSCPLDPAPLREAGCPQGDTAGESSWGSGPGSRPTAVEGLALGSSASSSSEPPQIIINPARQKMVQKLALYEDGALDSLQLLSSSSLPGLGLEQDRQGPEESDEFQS
# [5] = target: T1, Muscarinic acetylcholine receptor M1 (Homo sapiens) (UniProt P11229); experiment: M1/HU Eurofins-Panlabs selectivity data (BI); details: Compound concentration 10.0 uM
# T1 sequence (whole entry): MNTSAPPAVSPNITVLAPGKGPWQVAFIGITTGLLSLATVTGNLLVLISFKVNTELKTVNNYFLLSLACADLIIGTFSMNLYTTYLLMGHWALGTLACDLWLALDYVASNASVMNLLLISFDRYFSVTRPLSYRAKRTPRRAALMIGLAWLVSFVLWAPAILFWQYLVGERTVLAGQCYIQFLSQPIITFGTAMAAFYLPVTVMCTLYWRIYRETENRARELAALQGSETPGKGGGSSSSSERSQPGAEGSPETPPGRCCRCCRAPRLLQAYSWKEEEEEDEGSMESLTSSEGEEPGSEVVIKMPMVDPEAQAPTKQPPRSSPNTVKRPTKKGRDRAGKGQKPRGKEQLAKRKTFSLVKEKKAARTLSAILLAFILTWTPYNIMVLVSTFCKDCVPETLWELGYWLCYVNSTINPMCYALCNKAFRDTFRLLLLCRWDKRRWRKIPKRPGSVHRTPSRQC
# [6] = target: Activin receptor type-2B (Homo sapiens) (UniProt Q13705); experiment: ACVR2B Invitrogen selectivity data (BI); details: Compound concentration 3.0 uM
# Activin receptor type-2B (Homo sapiens), sequence (Q13705 whole entry): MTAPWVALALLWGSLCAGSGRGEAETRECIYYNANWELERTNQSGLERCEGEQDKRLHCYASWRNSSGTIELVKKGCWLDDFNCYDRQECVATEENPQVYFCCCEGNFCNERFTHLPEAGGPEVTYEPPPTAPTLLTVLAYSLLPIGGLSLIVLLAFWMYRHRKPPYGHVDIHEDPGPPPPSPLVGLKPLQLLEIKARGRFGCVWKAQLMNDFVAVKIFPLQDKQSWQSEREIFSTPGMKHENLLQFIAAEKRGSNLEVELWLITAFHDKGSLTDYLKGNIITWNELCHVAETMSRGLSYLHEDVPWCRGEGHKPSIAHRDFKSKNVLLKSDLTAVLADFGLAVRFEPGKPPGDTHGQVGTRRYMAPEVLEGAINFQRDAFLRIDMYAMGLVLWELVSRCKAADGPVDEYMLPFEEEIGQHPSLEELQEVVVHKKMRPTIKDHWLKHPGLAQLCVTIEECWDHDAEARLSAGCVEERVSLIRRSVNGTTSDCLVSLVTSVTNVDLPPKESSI
# [7] = target: Tyrosine-protein kinase ABL1 (Homo sapiens) (UniProt P00519); experiment: ABL_CE Cerep selectivity data (BI); details: Compound concentration 20.0 uM
# [8] = target: T2, MAP/microtubule affinity-regulating kinase 4 (Homo sapiens) (UniProt Q96L34); experiment: MARK4 Invitrogen selectivity data (BI); details: Compound concentration 3.0 uM
# T2 sequence (whole entry): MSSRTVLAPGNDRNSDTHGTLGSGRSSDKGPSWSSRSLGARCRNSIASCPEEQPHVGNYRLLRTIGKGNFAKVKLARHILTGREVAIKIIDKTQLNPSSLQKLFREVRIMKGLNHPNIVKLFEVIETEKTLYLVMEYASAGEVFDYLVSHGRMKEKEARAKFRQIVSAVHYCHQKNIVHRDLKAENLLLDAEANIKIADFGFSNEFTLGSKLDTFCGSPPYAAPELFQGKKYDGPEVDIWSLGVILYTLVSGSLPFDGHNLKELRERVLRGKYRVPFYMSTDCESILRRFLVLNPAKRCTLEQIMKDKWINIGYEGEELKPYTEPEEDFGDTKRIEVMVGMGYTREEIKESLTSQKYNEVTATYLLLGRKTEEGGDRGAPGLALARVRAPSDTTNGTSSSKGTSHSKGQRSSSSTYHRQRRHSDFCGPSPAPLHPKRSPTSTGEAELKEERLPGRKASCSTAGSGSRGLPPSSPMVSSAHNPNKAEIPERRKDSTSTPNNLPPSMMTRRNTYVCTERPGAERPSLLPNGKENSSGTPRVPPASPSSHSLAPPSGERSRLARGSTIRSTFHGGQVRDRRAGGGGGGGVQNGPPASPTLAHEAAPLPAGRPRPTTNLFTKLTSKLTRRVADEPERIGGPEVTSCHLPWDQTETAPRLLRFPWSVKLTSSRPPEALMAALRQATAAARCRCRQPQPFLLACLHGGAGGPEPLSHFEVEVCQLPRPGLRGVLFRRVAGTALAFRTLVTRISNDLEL
# [9] = target: T3, Tyrosine-protein kinase receptor TYRO3 (Homo sapiens) (UniProt Q06418); experiment: TYRO3 Invitrogen selectivity data (BI); details: Compound concentration 3.0 uM
# T3 sequence (whole entry): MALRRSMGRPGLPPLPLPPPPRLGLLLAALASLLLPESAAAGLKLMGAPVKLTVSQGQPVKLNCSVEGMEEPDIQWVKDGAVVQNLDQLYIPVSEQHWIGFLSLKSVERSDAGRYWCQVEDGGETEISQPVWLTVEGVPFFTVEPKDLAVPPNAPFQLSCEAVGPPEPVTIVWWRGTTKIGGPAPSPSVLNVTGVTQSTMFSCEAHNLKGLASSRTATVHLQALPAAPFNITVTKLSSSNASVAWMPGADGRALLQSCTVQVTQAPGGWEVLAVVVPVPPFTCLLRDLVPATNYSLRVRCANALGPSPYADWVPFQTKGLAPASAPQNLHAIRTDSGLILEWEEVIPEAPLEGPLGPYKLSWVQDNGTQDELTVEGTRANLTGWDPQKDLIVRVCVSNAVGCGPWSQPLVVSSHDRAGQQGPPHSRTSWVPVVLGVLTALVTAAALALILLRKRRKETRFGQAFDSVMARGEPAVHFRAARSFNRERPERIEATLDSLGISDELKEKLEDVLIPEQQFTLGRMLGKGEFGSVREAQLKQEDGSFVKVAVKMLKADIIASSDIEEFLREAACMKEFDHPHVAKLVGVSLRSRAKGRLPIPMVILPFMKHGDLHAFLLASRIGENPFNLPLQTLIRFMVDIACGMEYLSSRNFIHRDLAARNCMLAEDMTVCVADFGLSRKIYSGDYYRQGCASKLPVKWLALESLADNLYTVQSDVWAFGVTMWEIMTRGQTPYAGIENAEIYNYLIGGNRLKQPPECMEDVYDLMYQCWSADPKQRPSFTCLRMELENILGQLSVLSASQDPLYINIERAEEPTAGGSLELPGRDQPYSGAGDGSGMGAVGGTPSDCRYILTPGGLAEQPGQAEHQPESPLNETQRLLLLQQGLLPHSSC
# [10] = target: Prostaglandin G/H synthase 1 (Homo sapiens) (UniProt P23219); experiment: COX1_HU Cerep selectivity data (BI); details: Compound concentration 20.0 uM
# [11] = target: Beta-2 adrenergic receptor (Homo sapiens) (UniProt P07550); experiment: BETA2/HUM Cerep selectivity data (BI); details: filed as antagonist, Compound concentration 20.0 uM
# [12] = target: Calcium/calmodulin-dependent protein kinase type II subunit beta (Homo sapiens) (UniProt Q13554); experiment: CAMK2B Invitrogen selectivity data (BI); details: Compound concentration 3.0 uM
# [13] = target: Tyrosine-protein kinase Lyn (Homo sapiens) (UniProt P07948); experiment: LYN A Invitrogen selectivity data (BI); details: Compound concentration 3.0 uM
# Tyrosine-protein kinase Lyn (Homo sapiens), sequence (P07948 2-512 limits assumed): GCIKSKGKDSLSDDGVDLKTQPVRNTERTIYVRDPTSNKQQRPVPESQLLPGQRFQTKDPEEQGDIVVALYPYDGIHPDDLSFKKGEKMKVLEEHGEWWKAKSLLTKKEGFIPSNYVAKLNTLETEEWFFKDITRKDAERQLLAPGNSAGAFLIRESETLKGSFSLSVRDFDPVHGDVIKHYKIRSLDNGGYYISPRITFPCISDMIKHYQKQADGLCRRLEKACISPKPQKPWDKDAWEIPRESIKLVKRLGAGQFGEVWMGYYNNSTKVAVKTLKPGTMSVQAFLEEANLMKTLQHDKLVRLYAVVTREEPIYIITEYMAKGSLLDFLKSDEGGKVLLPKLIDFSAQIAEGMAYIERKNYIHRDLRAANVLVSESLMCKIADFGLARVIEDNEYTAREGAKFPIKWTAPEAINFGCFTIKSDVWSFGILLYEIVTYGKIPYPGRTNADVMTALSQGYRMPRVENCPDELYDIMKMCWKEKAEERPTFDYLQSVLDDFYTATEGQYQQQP
# [14] = target: Calcium/calmodulin-dependent protein kinase type II subunit alpha (Homo sapiens) (UniProt Q9UQM7); experiment: CAMK2A Invitrogen selectivity data (BI); details: Compound concentration 3.0 uM
# Calcium/calmodulin-dependent protein kinase type II subunit alpha (Homo sapiens), sequence (Q9UQM7 whole entry): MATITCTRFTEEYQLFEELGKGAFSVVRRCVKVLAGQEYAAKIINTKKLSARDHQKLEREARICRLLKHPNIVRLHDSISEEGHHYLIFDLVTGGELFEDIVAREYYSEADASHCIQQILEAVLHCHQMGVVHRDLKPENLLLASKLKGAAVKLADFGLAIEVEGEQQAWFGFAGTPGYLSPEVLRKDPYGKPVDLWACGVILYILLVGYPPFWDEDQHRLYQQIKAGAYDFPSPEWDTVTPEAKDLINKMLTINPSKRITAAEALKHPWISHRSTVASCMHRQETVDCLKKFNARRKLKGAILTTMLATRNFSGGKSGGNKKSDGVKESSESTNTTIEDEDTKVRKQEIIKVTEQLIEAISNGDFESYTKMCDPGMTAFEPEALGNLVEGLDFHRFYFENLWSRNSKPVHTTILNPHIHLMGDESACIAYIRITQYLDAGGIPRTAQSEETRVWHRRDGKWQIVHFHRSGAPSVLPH
# [15] = target: Non-receptor tyrosine-protein kinase TYK2 (Homo sapiens) (UniProt P29597); experiment: TYK2 Invitrogen selectivity data (BI); details: Compound concentration 3.0 uM
# [16] = target: L-type Ca2+ channel (dihydropyridine site), Cav1.2 alpha-1C (Rattus norvegicus, UniProt P22002); experiment: CA+/DHPSI/R Cerep selectivity data (BI); set-up: mode of action inhibitor; details: rat brain, probe [3H](+)PN200-110, compound concentration 20 uM, read-out: % Ctrl
# L-type Ca2+ channel (dihydropyridine site), Cav1.2 alpha-1C, sequence (P22002 whole entry): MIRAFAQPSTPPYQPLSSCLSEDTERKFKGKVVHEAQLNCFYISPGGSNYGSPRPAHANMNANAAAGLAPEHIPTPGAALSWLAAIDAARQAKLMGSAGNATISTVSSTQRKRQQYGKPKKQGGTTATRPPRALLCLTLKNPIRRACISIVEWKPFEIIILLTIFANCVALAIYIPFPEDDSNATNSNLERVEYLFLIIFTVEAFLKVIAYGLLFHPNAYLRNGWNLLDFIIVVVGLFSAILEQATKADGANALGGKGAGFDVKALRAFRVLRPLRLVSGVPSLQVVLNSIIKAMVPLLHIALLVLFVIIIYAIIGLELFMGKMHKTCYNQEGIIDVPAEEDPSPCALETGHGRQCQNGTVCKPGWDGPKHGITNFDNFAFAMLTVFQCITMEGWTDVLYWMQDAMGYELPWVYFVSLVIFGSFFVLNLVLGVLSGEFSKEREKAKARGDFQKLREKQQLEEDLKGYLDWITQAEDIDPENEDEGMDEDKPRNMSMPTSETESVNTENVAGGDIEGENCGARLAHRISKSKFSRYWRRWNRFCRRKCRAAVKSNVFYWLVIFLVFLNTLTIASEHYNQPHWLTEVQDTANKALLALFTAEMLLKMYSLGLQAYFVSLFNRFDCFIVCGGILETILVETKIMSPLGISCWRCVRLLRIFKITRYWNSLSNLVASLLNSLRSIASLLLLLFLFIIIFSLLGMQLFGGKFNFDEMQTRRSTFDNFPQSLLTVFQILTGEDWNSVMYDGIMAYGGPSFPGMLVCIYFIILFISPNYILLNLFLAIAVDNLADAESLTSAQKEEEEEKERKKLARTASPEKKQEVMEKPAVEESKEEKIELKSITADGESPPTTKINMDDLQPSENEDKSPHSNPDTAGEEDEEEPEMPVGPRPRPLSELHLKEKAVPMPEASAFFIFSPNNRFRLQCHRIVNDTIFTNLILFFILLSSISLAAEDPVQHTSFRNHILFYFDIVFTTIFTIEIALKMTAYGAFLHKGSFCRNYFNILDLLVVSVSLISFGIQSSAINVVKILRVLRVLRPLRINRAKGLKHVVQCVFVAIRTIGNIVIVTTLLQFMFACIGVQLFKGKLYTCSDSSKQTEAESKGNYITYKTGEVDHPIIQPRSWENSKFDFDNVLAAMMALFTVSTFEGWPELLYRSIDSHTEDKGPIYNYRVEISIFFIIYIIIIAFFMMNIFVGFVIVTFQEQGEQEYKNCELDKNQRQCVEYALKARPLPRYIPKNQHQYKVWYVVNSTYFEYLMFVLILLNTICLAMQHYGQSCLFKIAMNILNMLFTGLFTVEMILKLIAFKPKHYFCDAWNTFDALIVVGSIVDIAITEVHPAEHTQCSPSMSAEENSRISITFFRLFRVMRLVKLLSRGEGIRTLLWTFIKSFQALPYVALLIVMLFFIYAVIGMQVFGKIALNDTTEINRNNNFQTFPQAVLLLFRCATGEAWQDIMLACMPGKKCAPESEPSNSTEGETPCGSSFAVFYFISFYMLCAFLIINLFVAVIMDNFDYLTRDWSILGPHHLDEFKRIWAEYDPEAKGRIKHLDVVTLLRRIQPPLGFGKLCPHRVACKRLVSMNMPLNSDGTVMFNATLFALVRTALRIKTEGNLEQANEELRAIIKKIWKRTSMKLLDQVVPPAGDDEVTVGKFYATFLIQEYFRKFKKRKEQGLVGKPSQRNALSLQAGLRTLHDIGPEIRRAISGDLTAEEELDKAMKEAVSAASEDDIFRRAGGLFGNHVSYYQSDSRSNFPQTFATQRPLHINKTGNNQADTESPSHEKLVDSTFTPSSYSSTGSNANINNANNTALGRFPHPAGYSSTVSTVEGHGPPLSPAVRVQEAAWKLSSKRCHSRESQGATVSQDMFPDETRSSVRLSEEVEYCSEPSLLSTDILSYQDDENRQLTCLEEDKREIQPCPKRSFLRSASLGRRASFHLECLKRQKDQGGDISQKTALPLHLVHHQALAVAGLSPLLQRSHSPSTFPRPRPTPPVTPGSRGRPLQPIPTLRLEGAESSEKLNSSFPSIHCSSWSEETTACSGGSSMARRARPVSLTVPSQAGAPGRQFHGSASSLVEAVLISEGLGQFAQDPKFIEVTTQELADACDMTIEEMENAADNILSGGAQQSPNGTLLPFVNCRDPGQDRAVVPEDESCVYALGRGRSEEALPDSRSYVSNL
structure (smiles),measurement,setting,value
CN(C)C(=O)Cn1cc(-c2nc([C@@](C)(c3ccc(-c4cnc(N)nc4)cc3)C3CC3)no2)cn1 [BI 665915],residual activity,[1],88.5%
same,residual activity,[2],91%
same,residual activity,[3],88%
same,residual activity,[4],100%
same,residual activity,[5],90%
same,residual activity,[6],97%
same,residual activity,[7],33%
same,residual activity,[8],104%
same,residual activity,[9],96.5%
same,residual activity,[10],62%
same,residual activity,[11],98%
same,residual activity,[12],95%
same,residual activity,[13],93%
same,residual activity,[14],103%
same,residual activity,[15],97.5%
same,activity at 20 µM,[16],85% (not active)
